The text below walks through data of US10954253B2, “1,2-dihydro-3H-pyrazolo[3,4-d]pyrimidin-3-one derivative as Wee1 inhibitor” (SHIJIAZHUANG SAGACITY NEW DRUG DEVELOPMENT CO., LTD., priority 2017, dated 2021).

The structures appear in SMILES notation.

For this assay, the target named is Wee1 (Homo sapiens (Human), UniProt P30291). The assay can be described thus: In vitro enzymatic inhibitory activity (33P-ATP filter-binding kinase assay, MBP substrate). It is filed as biochemical. Conditions: Wee-1 150 nM, MBP 20 μM. Here is the method: The compounds of the present invention for experimental use were all self-prepared, and their chemical names and structural formulas are shown in the preparation embodiments of the respective compounds. The experimental tests were carried out in Reaction Biology Corporation, USA, and the experimental results were provided by the company. Basic reaction buffer: 20 mM hydroxyethylpiperazine ethanesulfuric acid (pH 7.5), 10 mM magnesium chloride, 1 mM EGTA, 0.02% Brij35, 0.02 mg/mL bovine serum albumin, 0.1 mM Na3VO4, 2 mM DTT, 1% DMSO Enzyme: Wee-1 concentration is 150 nM Matrix: MBP concentration is 20 μM The tested compound was formulated into a 5 mM solution with 100% DMSO, and a 10 points 3-fold gradient dilution was performed with DMSO through an automated pipetting station epMotion 5070. 1. Fresh matrix configuration reaction buffer was prepared; 2. The Wee-1 was added into the matrix solution and shaked gently; 3. DMSO solution of the compound were added into the kinase reaction mixture using an acoustic technique (Echo 550; nanoliter range) and incubated for 20 minutes at room temperature; 4. ^33P-ATP (specific activity, 10 μCi/μL) was added into the reaction mixture to stimulate the reaction; 5. Incubated for 2 hours at room temperature; 6. Kinase activity was detected by filter-binding method.
Chain of Wee1 (P30291 whole entry): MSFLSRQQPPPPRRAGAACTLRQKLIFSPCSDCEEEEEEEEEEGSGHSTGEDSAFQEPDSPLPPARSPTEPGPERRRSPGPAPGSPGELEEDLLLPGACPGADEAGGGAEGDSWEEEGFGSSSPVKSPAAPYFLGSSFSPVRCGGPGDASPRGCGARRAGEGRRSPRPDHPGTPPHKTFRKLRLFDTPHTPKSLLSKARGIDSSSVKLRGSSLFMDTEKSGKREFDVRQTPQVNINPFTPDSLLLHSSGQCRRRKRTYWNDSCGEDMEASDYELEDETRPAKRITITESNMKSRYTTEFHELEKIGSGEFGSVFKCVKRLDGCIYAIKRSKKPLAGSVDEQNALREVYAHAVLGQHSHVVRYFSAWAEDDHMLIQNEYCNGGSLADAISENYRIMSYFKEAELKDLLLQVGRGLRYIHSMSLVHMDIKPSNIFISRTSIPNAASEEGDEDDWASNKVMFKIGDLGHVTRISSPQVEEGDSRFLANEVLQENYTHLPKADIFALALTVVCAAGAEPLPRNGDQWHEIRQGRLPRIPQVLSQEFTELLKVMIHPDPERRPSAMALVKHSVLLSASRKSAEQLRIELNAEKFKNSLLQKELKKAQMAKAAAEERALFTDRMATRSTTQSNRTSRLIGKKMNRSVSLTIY

The IC50 is the midpoint of a concentration-inhibition curve. Read a low IC50 as greater potency in that assay. Consider `C=CCn1c(=O)c2cnc(Nc3ccc(N4CCC5(CCN(C)CC5)CC4)cc3)nc2n1-c1cccc([C@@](C)(O)C(F)(F)F)n1` [Compound 74, (R)-2-allyl-6-((4-(9-methyl-3,9-diazaspiro[5.5]undecan-3-yl)phenyl)amino)-1-(6-(1,1,1-trifluoro-2-hydroxypropan-2-yl)pyridin-2-yl)-1H-pyrazolo[3,4-d]pyrimidin-3(2H)-one], for which the IC50 is 13 nM.
The result for `C=CCn1c(=O)c2cnc(Nc3ccc(N4CCC5(CCN(C)CC5)CC4)cc3)nc2n1-c1cccc([C@](C)(O)C(F)(F)F)n1` [Compound 75, (S)-2-allyl-6-((4-(9-methyl-3,9-diazaspiro[5.5]undecan-3-yl)phenyl)amino)-1-(6-(1,1,1-trifluoro-2-hydroxypropan-2-yl)pyridin-2-yl)-1H-pyrazolo[3,4-d]pyrimidin-3(2H)-one] reads 17 nM; that for `C=CCn1c(=O)c2cnc(Nc3ccc(N4CCC5(CCNCC5)CC4)cc3)nc2n1-c1cccc(C(C)(C)O)n1` [Compound 76, 6-((4-(-3,9-diazaspiro[5.5]undecan-3-yl)phenyl)amino)-2-allyl-1-(6-(2-hydroxypropan-2-yl)pyridin-2-yl)-1H-pyrazolo[3,4-d]pyrimidin-3(2H)-one], 13 nM; that for `C=CCn1c(=O)c2cnc(Nc3ccc(N4CCC5(CCNCC5)CC4)cc3)nc2n1-c1cccc(C2(F)COC2)n1` [Compound 77, 6-((4-(-3,9-diazaspiro[5.5]undecan-3-yl)phenyl)amino)-2-allyl-1-(6-(3-fluoro-oxetan-3-yl)pyridin-2-yl)-1H-pyrazolo[3,4-d]pyrimidin-3(2H)-one], 9 nM.
`C=CCn1c(=O)c2cnc(Nc3ccc(N4CCC5(CCN(C)CC5)CC4)cc3)nc2n1-c1cccc(C(C)(O)C(F)F)n1` (centres unmarked) [Compound 78] returned an IC50 of 32 nM.
The compound `C=C(F)Cn1c(=O)c2cnc(Nc3ccc(N4CCC5(CCN(C)CC5)CC4)cc3)nc2n1-c1cccc(C(C)(C)O)n1` [Compound 79, 2-(2-fluoroallyl)-1-(6-(2-hydroxypropan-2-yl)pyridin-2-yl)-6-((4-(9-methyl-3,9-diazaspiro[5.5]undecan-3-yl)phenyl)amino)-1H-pyrazolo[3,4-d]pyrimidin-3(2H)-one] had an IC50 of 43 nM.
Consider `C=CCn1c(=O)c2cnc(Nc3ccc(N4CCC5(CCN(C)CC5)CC4)cc3)nc2n1-c1ccc(F)c(C(C)(C)O)n1` [Compound 80, 2-allyl-1-(5-fluoro-6-(2-hydroxypropan-2-yl)pyridin-2-yl)-6-((4-(9-methyl-3,9-diazaspiro[5.5]undecan-3-yl)phenyl)amino)-1H-pyrazolo[3,4-d]pyrimidin-3(2H)-one], for which the IC50 was determined as 49 nM.
Compound `C=CCn1c(=O)c2cnc(Nc3ccc(N4CCC5(CCN(C)CC5)CC4)cc3)nc2n1-c1ccccc1` [Embodiment 1, 2-allyl-6-((4-(9-methyl-3,9-diazaspiro[5.5]undecan-3-yl)phenyl)amino)-1-phenyl-1H-pyrazolo[3,4-d]pyrimidin-3(2H)-one] returned an IC50 of 67.4 nM.
Take `C=CCn1c(=O)c2cnc(Nc3ccc(N4CCC5(CCNCC5)CC4)cc3)nc2n1-c1ccccc1` [Embodiment 2, 6-((4-(3,9-diazaspiro[5.5]undecan-3-yl)phenyl)amino)-2-allyl-1-phenyl-1H-pyrazolo[3,4-d]pyrimidin-3(2H)-one]: the IC50 was determined as 43.6 nM.
Regarding `C=CCn1c(=O)c2cnc(Nc3ccc(N4CCC5(CCN(C)CC5)CC4)cc3)nc2n1-c1ccccn1` [Embodiment 3, 2-allyl-6-((4-(9-methyl-3,9-diazaspiro[5.5]undecan-3-yl)phenyl)amino)-1-(pyridin-2-yl)-1H-pyrazolo[3,4-d]pyrimidin-3(2H)-one], the half-maximal inhibitory concentration (IC50) was found to be 24.6 nM. This IC50 is about 1.8-fold lower than that of the compound before.
As to `C=CCn1c(=O)c2cnc(Nc3ccc(N4CCC5(CCN(C)CC5)CC4)cc3)nc2n1-c1ncccn1` [Embodiment 4, 2-allyl-6-((4-(9-methyl-3,9-diazaspiro[5.5]undecan-3-yl)phenyl)amino)-1-(pyrimidin-2-yl)-1H-pyazolo[3,4-d]pyrimidine-3(2H)-one], the IC50 came to 251 nM.
